Laboratory results: the supplement of paper PMC10307832

How the values were obtained:
Assay in all cases: relative viability (nuclei count vs DMSO), 5 days (fraction); higher = more cells survive
GSK126 + Lapatinib = compound: CC[C@H](C)N1C=C(C2=C(C=C(C=C21)C3=CN=C(C=C3)N4CCNCC4)C(=O)NCC5=C(C=C(NC5=O)C)C)C [GSK126] + CS(=O)(=O)CCNCc1ccc(-c2ccc3ncnc(Nc4ccc(OCc5cccc(F)c5)c(Cl)c4)c3c2)o1 [Lapatinib] (partner 2 µM)
Summary of the method: (§1)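 Values are medians from duplicate plates. Each reflects relative viability, defined as the nuclei count of treated wells over that of vehicle wells. Lung cancer cell lines in 1536-well plates were pin-tool dosed one day after seeding with one drug alone or with a fixed anchor-drug dose plus five library-drug doses (not always all listed) in √10 steps, then fixed, stained and imaged at 4× after 5 days.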

Carboplatin + Lapatinib = compound: C1CC(C1)(C(=O)O)C(=O)O.[NH2-].[NH2-].[Pt+2] [Carboplatin] + CS(=O)(=O)CCNCc1ccc(-c2ccc3ncnc(Nc4ccc(OCc5cccc(F)c5)c(Cl)c4)c3c2)o1 [Lapatinib] (partner 2 µM)
Summary of the method: as §1

GSK126 + Dasatinib = compound: CC[C@H](C)N1C=C(C2=C(C=C(C=C21)C3=CN=C(C=C3)N4CCNCC4)C(=O)NCC5=C(C=C(NC5=O)C)C)C [GSK126] + Cc1nc(Nc2ncc(C(=O)Nc3c(C)cccc3Cl)s2)cc(N2CCN(CCO)CC2)n1 [Dasatinib] (partner 0.075 µM)
Summary of the method: as §1

GSK126 + Trametinib = compound: CC[C@H](C)N1C=C(C2=C(C=C(C=C21)C3=CN=C(C=C3)N4CCNCC4)C(=O)NCC5=C(C=C(NC5=O)C)C)C [GSK126] + CC(=O)Nc1cccc(-n2c(=O)n(C3CC3)c(=O)c3c(Nc4ccc(I)cc4F)n(C)c(=O)c(C)c32)c1 [Trametinib] (partner 0.02 µM)
Summary of the method: as §1

Cell Line | relative viability (GSK126 + Lapatinib; first compound 0.08 µM) | relative viability (GSK126 + Lapatinib; first compound 0.253 µM) | relative viability (GSK126 + Lapatinib; first compound 0.8 µM) | relative viability (GSK126 + Lapatinib; first compound 2.53 µM) | relative viability (GSK126 + Lapatinib; first compound 8 µM) | relative viability (Carboplatin + Lapatinib; first compound 0.08 µM) | relative viability (Carboplatin + Lapatinib; first compound 0.253 µM) | relative viability (Carboplatin + Lapatinib; first compound 0.8 µM) | relative viability (Carboplatin + Lapatinib; first compound 2.53 µM) | relative viability (Carboplatin + Lapatinib; first compound 8 µM) | relative viability (GSK126 + Dasatinib; first compound 0.08 µM) | relative viability (GSK126 + Dasatinib; first compound 0.253 µM) | relative viability (GSK126 + Dasatinib; first compound 0.8 µM) | relative viability (GSK126 + Dasatinib; first compound 2.53 µM) | relative viability (GSK126 + Dasatinib; first compound 8 µM) | relative viability (GSK126 + Trametinib; first compound 0.08 µM) | relative viability (GSK126 + Trametinib; first compound 0.253 µM) | relative viability (GSK126 + Trametinib; first compound 0.8 µM) | relative viability (GSK126 + Trametinib; first compound 2.53 µM) | relative viability (GSK126 + Trametinib; first compound 8 µM)
SK-LU-1 | 0.91 | 0.882 | 0.889 | 0.913 | 0.818 | 0.99 | 1.01 | 0.766 | 0.797 | 0.735 | 0.213 | 0.231 | 0.189 | 0.199 | 0.173 | 0.519 | 0.524 | 0.485 | 0.816 | 0.486
COR-L 105 | 0.35 | 0.371 | 0.39 | 0.372 | 0.339 | 0.354 | 0.349 | 0.381 | 0.332 | 0.382 | 0.356 | 0.331 | 0.342 | 0.288 | 0.398 | 0.453 | 0.424 | 0.467 | 0.439 | 0.466
COR-L23 | 1.04 | 0.958 | 0.943 | 0.914 | 0.818 | 0.946 | 0.919 | 0.67 | 0.728 | 0.419 | 0.594 | 0.488 | 0.488 | 0.392 | 0.415 | 0.837 | 0.563 | 0.499 | 0.557 | 0.737
NCI-H3122 | 1.01 | 1.01 | 1.04 | 0.965 | 0.95 | 1.1 | 1 | 0.981 | 0.953 | 0.995 | 0.969 | 0.728 | 0.819 | 0.748 | 1.2 | 0.198 | 0.186 | 0.216 | 0.22 | 0.245
NCI-H23 | 1.26 | 1.02 | 1.02 | 1.22 | 1.2 | 1.16 | 1.25 | 1 | 1.02 | 0.783 | 0.884 | 0.789 | 0.782 | 0.858 | 0.749 | 0.434 | 0.378 | 0.407 | 0.551 | 0.391
PC-3 [JPC-3] | 0.43 | 0.489 | 0.527 | 0.477 | 0.462 | 0.451 | 0.458 | 0.465 | 0.468 | 0.446 | 1.12 | 0.997 | 0.997 | 1.02 | 0.978 | 0.763 | 0.694 | 0.693 | 0.66 | 0.634
NCI-H2228 | 1.11 | 1.15 | 1.06 | 1.16 | 1.33 | 1.61 | 0.939 | 1.01 | 0.868 | 0.616 | 0.597 | 0.513 | 0.522 | 0.562 | 0.493 | 0.677 | 0.502 | 0.407 | 0.606 | 0.513
A549 | 1.06 | 1.08 | 0.946 | 0.932 | 0.934 | 1.12 | 0.938 | 0.911 | 0.928 | 0.437 |  |  |  |  |  |  |  |  |  | 
